Results on two molecules are retold here after patent US8815935B2, “Inhibitors of protein prenyltransferases” (The Regents of the University of California, priority 2008, dated 2014).

The target in experiment [1] is T1, GGTase-I (Rattus norvegicus, UniProt P53610+Q04631).
T1 construct: purchased JENA BIOSCIENCE
As to the kind of experiment: In vitro GGTase-I enzyme assay (IC50, kinetics). In kind it is biochemical. The procedure, abridged: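 Rat GGTase-I (50 nM) with 0.5 μM [3H]-GGPP and 2 μM MBP-RhoA in Tris-HCl pH 7.5, MgCl2, ZnCl2, DTT, 2.5% DMSO, 10 min at 30 °C; radiolabel incorporation by TCA filter binding and scintillation. Kinetics: 5 min reactions varying GGPP or RhoA at fixed other components.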

Experiment [2] concerns the target T2, FTase (Rattus norvegicus, UniProt Q02293+Q04631).
T2 construct: purchased JENA BIOSCIENCE
As to the kind of experiment: In vitro FTase assay (K-Ras4B substrate, [3H]FPP). In kind it is biochemical. The note with it: P3-D9, P3-E5: concentration increased to 100 (unit not given). The source says: To further characterize the pilot library, inhibitors of protein farnesyltransferase were identified. This was accomplished by using K-Ras4B as a substrate protein, tritiated farnesylpyrophosphate ([^3H]FPP) and protein farnesyltransferase. See Finegold, A. A., Johnson, D. I., Farnsworth, C. C., Gelb, M. H., Judd, S. R., Glomset, J. A. and Tamanoi, F. (1991) Protein geranylgeranyltransferase of Saccharomyces cerevisiae is specific for Cys-Xaa-Xaa-Leu motif and requires the CDC43 gene product but not the DPR1 gene product. Proc. Natl. Acad. Sci. USA 88, 4448-4452. […] On the other hand, the structure of the compounds P1-F11, P2-B7 and P2-E9 resemble those of GGTIs. The FTI P1-F11 resembles the GGTI P1-F10, while the FTI P2-B7 resembles the GGTI P2-C10. The FTI P2-E9 is similar to the GGTI P2-G3. Similarity of some GGTI and FTI compounds may point to common structural features between the two closely related enzymes. As described before, FTase and GGTase I have similar three-dimensional structures and a shared alpha subunit. On the other hand, FTase specific inhibitors may recognize a region(s) that is different between the two enzymes.
Examples 2-8 illustrate assays of bioactivity. These methods are applicable to the compounds of the present invention having the particular linkers and scaffolds described herein, to determine their activity. […] Varying concentrations of the two compounds were added to each enzyme reaction. The FTase (protein farnesyltransferase) assay was carried out using K-Ras4B as a substrate protein, FTase (JENA Bioscience, San Diego, Calif.) and [3H]farnesyl pyrophosphate. Incubation was for 30 min at 37° C.
GGTase-I and FTase activities were determined by following the incorporation of radiolabeled isoprenoid [^3H]-geranylgeranyl or [^3H]-farnesyl into substrate proteins. FTase or GGTase-I (50 nM) were used to initiate reactions containing 0.4 μM of [^3H]-FPP or 0.5 μM of [^3H]-GGPP and 2 μM of MBP-tagged substrates (K-Ras4B for FTase; RhoA for GGTase-I) in 20 μl of buffer {50 mM Tris-HCl (pH 7.5), 10 mM MgCl2, […] and 5 mM DTT}. Inhibitors were added at the indicated concentrations. The final DMSO concentration was 2.5% for all samples.
Reactions were carried out for 10 min at 30° C. The reaction mixture was spotted onto a filter paper, treated with 10% trichloroacetic acid (TCA) followed by ethanol and acetone washing. The filter was counted using a scintillation counter. Kinetic assays in which the GGPP concentration was varied employed fixed concentrations of GGTase-I and RhoA, and reactions were carried out for 5 min. Similarly, fixed concentrations of GGTase-I and GGPP were used when the amount of RhoA was varied.

Experiment [3] deals with GGTase I (K-Ras4B as substrate) (Homo sapiens, UniProt P49354+P53609). As to the kind of experiment: GGTase I filter-binding assay, K-Ras4B as substrate (library screens). Format: biochemical. The method, then: (§1) The pilot library was screened for inhibitors of protein geranylgeranyltransferase type I. Protein prenyltransferase assays were carried out by using filter binding. Two different substrates, RhoA and K-Ras4B, were used for the assay. RhoA ends with the CaaL motif and is an exclusive substrate for GGTase I, while K-Ras4B ends with the CaaX motif and is modified by both GGTase I and FTase.
(§2) In the assay, a fixed concentration of 100 μM was used and the results are plotted for the inhibition of RhoA (vertical axis) as well as for K-Ras4B (horizontal axis). […] They are 2,6-diaryl-N-tosyl-1,2,5,6-tetrahydropyridine-3-carboxylic acids, except P2-D5 that is missing an aryl substituent at C2.
The % activity of GGTase I was determined as follows: a working solution that contained each compound in DMSO at the concentration of 1 mM was prepared. The working solution was added to GGTase I reaction mixture so that the final concentration of the compound is 50 μM. GGTase I activity was assayed by incubating [^3H]GGPP with K-Ras4B or RhoA protein in the presence of GGTase I and examining radioactivity incorporated into the substrate protein by spotting onto a filter paper. After washing with TCA, ethanol and acetone, the radioactivity retained on the filter was determined by the use of a scintillation counter. GGTase I activity in the presence of DMSO was taken as a 100% value and the activity in the presence of the compound was shown as percent activity compared with the 100% value. […] For 6-aryl-4-mercapto-N-sulfonyl-piperidine-3-carboxylic acid 11 the 4-mercapto substituent appeared critical to endowing GGTase inhibitory activity. […] 4-Chlorobenzylthio substituent was the next best; 12 compounds out of 21 containing the 4-chlorobenzylthio moiety were active. 4-Benzylthio substituent was also good; 7 piperidines out of 21 bearing 4-benzylthio group were active. […] 19 imines (C15>C12=C41>C40>C01=C11>C05=C10=C30=C35=C37=C38>C02, C03, C04, C06, C39=C43) out of 21 appeared in the GGTIs. […] This corresponds to 47 6-aryl-4-mercapto-N-sulfonyl-piperidine-3-carboxylic acids out of 357 compounds.
A collection of 138 heterocycles was screened for their ability to inhibit the activity of human GGTase-I to geranylgeranylate K-Ras4B or RhoA. Purified GGTase-I was incubated with its substrate protein K-Ras4B or RhoA, [^3H]GGPP, and the 138 compounds. After 30 min, the degree of incorporation of tritiated geranylgeranyl groups was measured using a scintillation counter.

Experiment [4] concerns H-Ras farnesylation in NIH3T3 cells. Description: H-Ras mobility shift immunoblot in NIH3T3 cells. The note with it: 48 hours. Format: cell-based. The method, then: K562 cells were treated with modified compounds for 72 hours and then cell number was counted. IC50 values of cell viability relative to the DMSO were measured. […] Data represent the mean+/−S.D. of two measurements from two independent experiments. *, P<0.05 compared with the value for DMSO. […] Whole cell lysates from cells treated with DMSO, P5-H6, P61-A6, GGTI (GGTI-298), FTI (BMS-225975) or RabGGTI (P49-F6) for 48 hours were prepared and processed for immunoblot analysis using antibody against unprenylated form of Rap1 (C: upper panel), Total-Rap1 (C: middle panel), H-Ras (D: upper panel), Rab5b (E: upper panel) or actin (C, D, and E: lower panel). The immunoblots shown represent two independent experiments for each treatment.
This was examined by using a farnesylated protein H-Ras.
(In general: A western blot detects proteins with antibodies after separation by electrophoresis.)

In experiment [5] the target is GGTase I (RhoA as substrate) (Homo sapiens, UniProt P49354+P53609). As to the kind of experiment: GGTase I filter-binding assay, RhoA as substrate (library screens). In kind it is biochemical. To be noted: compound 50 μM, DMSO = 100%, smaller = better inhibition. The method, then: as §1, §2
The % activity of GGTase I was determined as follows: a working solution that contained each compound in DMSO at the concentration of 1 mM was prepared. The working solution was added to GGTase I reaction mixture so that the final concentration of the compound is 50 μM. GGTase I activity was assayed by incubating [^3H]GGPP with K-Ras4B or RhoA protein in the presence of GGTase I and examining radioactivity incorporated into the substrate protein by spotting onto a filter paper. After washing with TCA, ethanol and acetone, the radioactivity retained on the filter was determined by the use of a scintillation counter. GGTase I activity in the presence of DMSO was taken as a 100% value and the activity in the presence of the compound was shown as percent activity compared with the 100% value. […] For 6-aryl-4-mercapto-N-sulfonyl-piperidine-3-carboxylic acid 11 the 4-mercapto substituent appeared critical to endowing GGTase inhibitory activity. […] 4-Chlorobenzylthio substituent was the next best; 12 compounds out of 21 containing the 4-chlorobenzylthio moiety were active. […]
A collection of 138 heterocycles was screened for their ability to inhibit the activity of human GGTase-I to geranylgeranylate K-Ras4B or RhoA. […] After 30 min, the degree of incorporation of tritiated geranylgeranyl groups was measured using a scintillation counter.

On to `COC(=O)[C@H](CC(C)C)NC(=O)c1ccc(NC[C@@H](N)CS)cc1-c1cccc2ccccc12` [GGTI-298, reference compound], for which the “inhibition of GGTase I (FIG. 16 controls)” value in experiment [1] was “inhibits GGTase I”. In experiment [2], the “inhibition of FTase activity (FIG. 16)” value was “little inhibition”. Also, the “relative inhibition of RhoA-driven versus K-Ras4B-driven GGTase I activity” value in experiment [3] (pilot screen 100 μM, library screen 50 μM) was “inhibit RhoA-driven GGTase I activity slightly better than K-Ras4B-driven GGTase I activity”. The “mobility shift of H-Ras (protein farnesylation)” value in experiment [4] is reported as “no such mobility shift”.
In the case of `Cc1ccccc1S(=O)(=O)N1C(c2ccc(Cl)cc2)CC=C(C(=O)O)[C@@H]1c1ccccc1` (stereo partly drawn) [drawing 33], the “% activity of GGTase I for K-Ras4B in the presence of the compound” value in experiment [3] (compound 50 μM, DMSO = 100%, smaller = better inhibition, 50 µM) is recorded as 10.6%. Besides, the “% activity of GGTase I for RhoA in the presence of the compound” value in experiment [5] is 8.8%.
